Test systems include BT-549 breast; HCC-2998 colon; MCF7 breast; NCI-H522 lung; OVCAR-4 ovarian; OVCAR-5 ovarian; RXF 393 renal; SK-OV-3 ovarian; SNB-75 CNS; TK-10 renal.
What all share (experiment): inhibition of tumour cell growth, NCI panel, 48 h

Several values for one entry are separate records, joined by “and”; a condition that tells them apart may be missing. Equal values may be shown once.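 Protocol summary: plate cells (96-well), add compound at 5 concentrations, incubate 48 h, interpolate endpoints linearly. GI50 marks 50% less growth. TGI is the concentration that stops growth completely.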

In the case of `CCCCOC(=O)c1c(C)[nH]c(/C=C2\N=C(c3ccc[nH]3)C=C2OC)c1C`, the GI50 was 650 nM in the assay with BT-549 breast; 138 nM in the assay with HCC-2998 colon; 162 nM with MCF7 breast; 174 nM with NCI-H522 lung; 177 nM in the assay with OVCAR-4 ovarian; 337 nM in the assay on OVCAR-5 ovarian. In addition, the GI50 in the assay on RXF 393 renal is 537 nM; with SK-OV-3 ovarian it was 1450 nM; in the assay with SNB-75 CNS, 124 nM; in the assay with TK-10 renal, 185 nM. For the same compound, the TGI in the assay on BT-549 breast was 12100 nM; in the assay with HCC-2998 colon, 2060 nM; in the assay with MCF7 breast, 2650 nM; with NCI-H522 lung it was 1680 nM; in the assay on OVCAR-4 ovarian, 5040 nM; in the assay with OVCAR-5 ovarian it was 2470 nM. The TGI with RXF 393 renal was found to be 3070 nM; in the assay on SK-OV-3 ovarian, 14400 nM; with SNB-75 CNS, 892 nM; in the assay with TK-10 renal, 5070 nM.
Consider `Cc1cc(-c2cc(OC(=O)c3ccccc3)ccc2Cl)cc2nnc(Nc3ccc(OCCN4CCCC4)cc3)nc12`, for which the GI50 in the assay on BT-549 breast was 2670 nM; in the assay on HCC-2998 colon, 1810 nM; with MCF7 breast, 186 nM; in the assay with NCI-H522 lung it was 1370 nM; in the assay with OVCAR-4 ovarian, 1650 nM; with OVCAR-5 ovarian, 1500 nM. For the same compound, the GI50 with RXF 393 renal is 1160 nM; in the assay on SK-OV-3 ovarian, 1580 nM; with SNB-75 CNS, 508 nM; in the assay with TK-10 renal, 1630 nM. The TGI with BT-549 breast came out at 6680 nM; in the assay with HCC-2998 colon, 3370 nM; in the assay on MCF7 breast, 403 nM; with NCI-H522 lung, 3080 nM; in the assay on OVCAR-4 ovarian, 3160 nM; with OVCAR-5 ovarian, 2840 nM. Moreover, the TGI with RXF 393 renal was determined as 2480 nM; in the assay on SK-OV-3 ovarian, 3090 nM; in the assay with SNB-75 CNS it was 1890 nM; with TK-10 renal it was 3030 nM.
Regarding `CC(=O)ON=C1C=CC(=C(C#N)c2ccccc2)C=C1`, the GI50 with BT-549 breast is 3900 nM; in the assay on HCC-2998 colon, 11700 nM; in the assay with MCF7 breast it was 319 nM; with NCI-H522 lung, 383 nM; in the assay with OVCAR-4 ovarian, 5510 nM; in the assay with OVCAR-5 ovarian it was 3220 nM. In addition, the GI50 in the assay on RXF 393 renal was 2680 nM; in the assay with SK-OV-3 ovarian, 6410 nM; in the assay on SNB-75 CNS, 2000 nM; with TK-10 renal, 2580 nM. For the same compound, the TGI is 12500 nM in the assay on BT-549 breast; 32200 nM in the assay on HCC-2998 colon; 12800 nM with MCF7 breast; 2480 nM in the assay on NCI-H522 lung; 22000 nM in the assay with OVCAR-4 ovarian; 9280 nM with OVCAR-5 ovarian. Further, the TGI is 11500 nM in the assay on RXF 393 renal, greater than 100000 nM with SK-OV-3 ovarian, 13700 nM with SNB-75 CNS and 9900 nM in the assay on TK-10 renal.
Consider `C[C@]12CC[C@H]3[C@@H](CC[C@]4(O)C[C@@H](O[C@@H]5O[C@H](CO)[C@@H](O[C@@H]6OC[C@@H](O)[C@H](O)[C@H]6O)[C@H](O)[C@H]5O)CC[C@]34C=O)[C@@]1(O)CC[C@@H]2C1=CC(=O)OC1`, for which the GI50 with BT-549 breast was 1060 nM; in the assay with HCC-2998 colon it was 3090 nM; in the assay on MCF7 breast it was 1300 nM; in the assay with NCI-H522 lung it was 237 nM; in the assay on OVCAR-4 ovarian, 910 nM; in the assay on OVCAR-5 ovarian it was 1770 nM. Also, the GI50 in the assay on RXF 393 renal was 1250 nM; in the assay with SK-OV-3 ovarian, 1750 nM; in the assay with SNB-75 CNS, 1150 nM; in the assay on TK-10 renal it was 1190 nM. Besides, the TGI was found to be 5200 nM with BT-549 breast; 21300 nM with HCC-2998 colon; 7570 nM with MCF7 breast; 1510 nM in the assay with NCI-H522 lung; 2800 nM in the assay on OVCAR-4 ovarian; 6320 nM with OVCAR-5 ovarian. Further, the TGI was determined as 3110 nM in the assay with RXF 393 renal, 7690 nM with SK-OV-3 ovarian, 6650 nM in the assay with SNB-75 CNS and 4490 nM with TK-10 renal.
Take `CC1[C@@H]2CC=C3[C@H]4CCC5Cc6nc7c(nc6C[C@@]5(C)C4CC(=O)[C@]32CO[C@]12OC(C)(C)CC2O)CC1CC[C@@H]2C3=C[C@H]4O[C@@]5(O[C@@](C)(CO)C[C@@H]5O)C(C)[C@@]4(O)[C@]3(C)[C@@H](O)CC2[C@]1(C)C7` (stereo partly specified): the GI50 with BT-549 breast is 0.751 nM; in the assay with HCC-2998 colon it was 292 nM; with MCF7 breast it was 0.482 nM and 1.42 nM; in the assay on NCI-H522 lung it was 13.1 nM; in the assay with OVCAR-4 ovarian it was 39 nM and 98.5 nM; in the assay on OVCAR-5 ovarian, 13 nM and 4.25 nM. The GI50 in the assay on RXF 393 renal is 0.365 nM; in the assay on SK-OV-3 ovarian it was 1.38 nM and 2.34 nM; in the assay with SNB-75 CNS, 0.365 nM. The TGI in the assay with BT-549 breast was 363 nM; in the assay on HCC-2998 colon it was 912 nM and > 3650 nM; in the assay with OVCAR-4 ovarian, 921 nM and > 3650 nM; in the assay with OVCAR-5 ovarian, 139 nM and 23.7 nM; in the assay with RXF 393 renal, 0.428 nM and 4.14 nM; with SK-OV-3 ovarian, 23.9 nM and 73 nM. In addition, the TGI in the assay with TK-10 renal stood at 576 nM.
For `Cc1cnc(-c2ccc(-c3ccc(NC(=O)Nc4c(F)cc(F)cc4F)cc3F)c3c2C(=O)NC3)[nH]1`, the GI50 in the assay on BT-549 breast is 1190 nM and 1690 nM; with HCC-2998 colon, 2010 nM and 1610 nM; with MCF7 breast, 141 nM and 410 nM; in the assay with NCI-H522 lung, 1120 nM and 1200 nM; with OVCAR-4 ovarian, 1440 nM; in the assay with OVCAR-5 ovarian it was 1610 nM and 1560 nM. Besides, the GI50 in the assay with RXF 393 renal is 1150 nM and 1320 nM; with SK-OV-3 ovarian, 1420 nM and 3590 nM; in the assay with SNB-75 CNS, 2960 nM; in the assay with TK-10 renal it was 2060 nM and 5430 nM. Besides, the TGI in the assay on BT-549 breast was 19200 nM and 16100 nM; in the assay on HCC-2998 colon, > 100000 nM and 11600 nM; in the assay with MCF7 breast it was 6530 nM and 12800 nM; with NCI-H522 lung it was 3690 nM and 3950 nM; with OVCAR-4 ovarian, 3200 nM; in the assay with OVCAR-5 ovarian, 13200 nM and 12600 nM. Further, the TGI in the assay on RXF 393 renal is 3600 nM and 5580 nM; in the assay on SK-OV-3 ovarian, 18300 nM and 23300 nM; in the assay with SNB-75 CNS, 10900 nM; in the assay on TK-10 renal, 7670 nM and 17600 nM.

These data come from PubChem BioAssay (NCI).
